Data as given in publication PMC12564639, “Discovery of a Novel Anticoagulant Cystine Knot Peptide from Spider Venom Gland Transcriptome” (International Journal of Molecular Sciences, 2025).
Read-outs that look alike come from different tables or passages of the source. Bridge positions count the residues as written; N and C are the ends. Square brackets hold non-standard residues; d marks the D form. Ends that are not written are not given here. * marks the point of attachment. pNA = O=[N+]([O-])c1ccc(N*)cc1; pGlu = O=C1CC[C@@H](C(=O)O)N1

Experiments:
[1] = venom of Eresus niger; cited from earlier work
Text: Studies have focused on the use of venom peptides for anticoagulation therapy. […] These peptides typically target key components of the coagulation cascade with high specificity, potency, and selectivity.

[2] = cited from earlier work
Text: (§1) Anticoagulants are standard therapy for venous thromboembolism and arterial thrombosis-mediated disorders, particularly in acute settings.

[3] = ref Diapharma Group (supplier named); enzyme not given; cited from earlier work
Text: Human Activated Protein C (APC-1.0) was purchased from Enzyme Research Laboratories, Inc., South Bend, IN, USA. […] Activated Partial Thromboplastin Time (APTT) Test Kit (TC0306) was bought from Senkey Biotechnology Co., Ltd., Kunming, China. Prothrombin Time (PT) Test Kit (GMS10176) was purchased from GENMED Scientifics Inc., Shanghai, China. Streptavidin (SA) Biosensors (18-5019) were obtained from Sartorius AG, Göttingen, Lower Sa ...

[4] = system: thrombin; conditions: cited from earlier work
Text: as §1

[5] = system: mouse tail bleeding; experiment: Tail bleeding time; assay type: in vivo, C57BL/6J mice; conditions: heparin sodium 1000 U/kg i.v., 10 min after administration; n = 6; vehicle 89.8 s
Description: The C57BL/6J mice (male, 6–8 weeks old) were purchased from Beijing Vital River Laboratory Animal Technology Co., Ltd. (Beijing, China). All animal studies were performed under the approval of the Ethics Committee of the Laboratory Animal Welfare of the Kunming Institute of Zoology, Chinese Academy of Sciences (IACUC-RE-2025-03-010).
The mouse tail-bleeding assay was performed to evaluate the bleeding risk associated with GC38 treatment. Male C57BL/6J mice (6–8 weeks, n = 6 per group) were randomized to receive intravenous injection of PBS (negative control), GC38 (2 or 4 mg/kg in PBS), or heparin sodium (1000 U/kg, positive control). The assay was conducted 10 min after administration. Mice were anesthetized, and a 2 mm segment of the tail tip was surgically transected using a sterile scalpel. Immediately after the incision, the tail was immersed in prewarmed PBS (37 °C) to facilitate blood flow. Bleeding time was recorded from the moment of the incision until the complete cessation of bleeding (no blood flow for 60 s).

[6] = biological target: Human Activated Protein C (human) (UniProt P04070)

Q: With phospholipase A2 as the molecule, how does the anticoagulant activity [1] read?
A: The anticoagulant activity was “anticoagulant activity”.

Q: For heparin, which bleeding risk ([2]; clinical) is on record?
A: Its bleeding risk is “significant bleeding risks”.

Q: What does the source list for “[pGlu]-Pro-Arg-pNA [S-2366, Chromogenix substrate S-2366]”?
A: Km [3]: 200 µM; kcat [3]: 190 s⁻¹

Q: Which major bleeding events ([2]; percutaneous coronary intervention (PCI), compared to heparin) does the source give for “bivalirudin: Another synthetic peptide, bivalirudin” here?
A: The major bleeding events was “reduction in major bleeding events compared to heparin”.

Q: What does the source list for hirudin?
A: thrombin inhibition [4]: thrombin inhibitor; bleeding risk ([2]; heparin-induced thrombocytopenia (HIT) management): lower bleeding risk than conventional therapies

Q: For heparin sodium [reference compound], which tail bleeding time [5] is on record?
A: The tail bleeding time was 127.6 s.

B1: GC38 (peptide)
peptide: GCSGKGARCAPSKCCSGLSCGRHGGNMYKSCEWNWKTG
modifications: disulfide 14-31, 2-15, 9-20
Q: For B1, which APC enzymatic activity at Vmax on chromogenic substrate S-2366 (APC 0.7145 μM, S-2366 402.1 μM), GC38 0.1 to 10 μM, concentration-dependent; highest value at 10 μM [6] is on record?
A: Its APC enzymatic activity at Vmax on chromogenic substrate S-2366 (APC 0.7145 μM, S-2366 402.1 μM), GC38 0.1 to 10 μM, concentration-dependent; highest value at 10 μM is 171%.
